The source of these data is patent publication US20240189240A1, “PHARMACEUTICAL COMPOSITIONS COMPRISING ZOLMITRIPTAN” (MapLight Therapeutics, Inc., priority 2021, published 2024).

Data set [1] is described as follows: CSF levels after i.p. dosing in c57/Bl6 mice. The format is in vivo, mouse.
Data set [2] is described as follows: CSF levels after i.p. dosing in CD-1 mice. Conditions: zolmitriptan 3 and 10 mg/kg i.p., male CD-1 mice.
The subject of another data set is CD-1 mice. The data set can be described thus: Resident-Intruder (RI) assay of aggression. The format is in vivo, mouse. The conditions noted are these: 10 mg/kg. The protocol:
Correspondingly, the RI assay has been used preclinically to study the effect of drugs on rodent aggression (Miczek et al., 2001). The RI assay typically relies on the interpretation and scoring of offensive (resident animal) behavior patterns and may also include analysis of defensive (intruder animal) behavior patterns as well. […] Attack time was measured over a 5 min period as a cross over design.

Data set [3] has as its target T1, rat recombinant 5-HT1b (r5-HT1b) receptors (Rattus norvegicus, UniProt P28564).
T1 construct: expressed in transfected cells
The data set can be described thus: SPA-based 35S-GTPγS binding assay (functional). The format is biochemical. How it is done:
In this study in vitro binding assays were conducted to measure the affinity of zolmitriptan and its active metabolite NDMZ to rat and human 5-HT1B receptors.
Zolmitriptan was tested in a SPA-based 35S-GTPγS binding assay in cells expressing human 5-HT1b (h5-HT1b) receptors or rat recombinant 5-HT1b (r5-HT1b) receptors at ten concentrations in duplicate.
On the technique in general: GTPγS is a poorly hydrolysed GTP analogue; its binding reports G protein activation.

A further data set concerns the target 5-HT1b receptor (Homo sapiens, UniProt P28222). The data set can be described thus: 5-HT1b receptor occupancy and efficacy model, human dose estimate. The protocol: Specifically, 5-HT1b receptor occupancy and efficacy models measured potency of zolmitriptan and NMDZ at the 5-HT1b receptor and the ratio of zolmitriptan: NDMZ in human CSF. The 5-HT1b receptor efficacy model was used to predict the level of 5-HT1b activation (i.e., efficacy) by both zolmitriptan and NDMZ based on the concentration of zolmitriptan in the CSF. From this target zolmitriptan dose ranges required to achieve an effective CSF exposures in humans were calculated.
Using classical receptor theory, the receptor occupancy when considering two ligands (i.e., entities) can be predicted using the following relationship:
Total % occupancy=(% occupancy by A)+{[100%−(% occupancy by A)]×(% occupancy by B)} when considering a fixed concentration of both A and B.
Total % Efficacy={[Zolmitriptan]/([Zolmitriptan]+Ki,Z)}+(100−{[Zolmitriptan]/([Zolmitriptan]+Ki,Z)}×{[NDMZ]/([NDMZ]+Ki,N)}

5-HT1b receptor, sequence (P28222 whole entry): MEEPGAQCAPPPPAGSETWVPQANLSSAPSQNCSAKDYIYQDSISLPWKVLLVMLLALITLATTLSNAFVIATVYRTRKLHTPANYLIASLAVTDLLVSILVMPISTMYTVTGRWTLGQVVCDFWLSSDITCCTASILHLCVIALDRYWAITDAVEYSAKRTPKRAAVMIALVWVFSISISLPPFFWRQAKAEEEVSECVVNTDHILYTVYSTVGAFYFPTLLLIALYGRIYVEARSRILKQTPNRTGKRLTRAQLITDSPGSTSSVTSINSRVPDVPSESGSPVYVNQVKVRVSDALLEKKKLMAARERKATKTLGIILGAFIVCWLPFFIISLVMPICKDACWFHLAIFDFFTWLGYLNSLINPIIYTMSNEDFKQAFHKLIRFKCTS
T1 sequence (P28564 whole entry): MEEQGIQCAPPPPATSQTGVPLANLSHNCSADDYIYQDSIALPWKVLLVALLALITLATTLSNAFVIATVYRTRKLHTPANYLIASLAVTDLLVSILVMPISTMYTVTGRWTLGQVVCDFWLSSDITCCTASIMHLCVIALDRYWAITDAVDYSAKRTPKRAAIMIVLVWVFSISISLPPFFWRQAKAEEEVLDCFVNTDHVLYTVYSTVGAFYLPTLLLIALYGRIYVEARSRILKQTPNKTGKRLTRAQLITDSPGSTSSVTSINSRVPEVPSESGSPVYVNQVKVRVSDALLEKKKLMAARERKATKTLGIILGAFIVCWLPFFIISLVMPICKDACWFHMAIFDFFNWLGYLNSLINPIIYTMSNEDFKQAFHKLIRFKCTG

Consider `CNCCc1c[nH]c2ccc(C[C@H]3COC(=O)N3)cc12` [NDMZ, N-desmethyl zolmitriptan], for which the “metabolite level in CSF after zolmitriptan dosing” value in data set [1] (zolmitriptan 10 mg/kg i.p., male c57/Bl6 mice) is “below the lower limit of quantification”. The “metabolite level after zolmitriptan dosing” value in data set [2] was “below the lower limit of quantification”.
For the molecule `CN(C)CCc1c[nH]c2ccc(C[C@H]3COC(=O)N3)cc12` [Zolmitriptan, (4S)-4-[[3-[2-(dimethylamino)ethyl]-1H-indol-5-yl]methyl]-1,3-oxazolidin-2-one], in the data set with CD-1 mice, the “reduction in attack time compared to risperidone (0.03 mg/kg) and vehicle control” value is given as “greater reduction in attack time”. The “CSF Cmax” value in data set [1] (10 mg/Kg i.p., c57/Bl6 ASD mouse model) came to 62 nM. In addition, in data set [3] (CSF Cmax 18.8 nM, CD-1 mice, 3 mg/Kg i.p.), the “activity in GTPgS at CSF Cmax (EC36)” value turned out to be 36%. In addition, in data set [3] (CSF Cmax 62 nM, c57/Bl6 mice, 10 mg/Kg i.p.), the “activity in GTPgS at CSF Cmax (EC65)” value is recorded as 65%. In addition, the “CSF levels required for a therapeutic effect in humans, lower than in mice” value on 5-HT1b receptor (based on human vs rat 5-HT1b EC50) is “about 8.3 fold”. Also, at 5-HT1b receptor (combined effect of the metabolite), the “concentration for 50% Total Efficacy relative to the zolmitriptan EC50” value was 3.7 fold. Besides, the EC50 on 5-HT1b receptor (read-out: concentration of zolmitriptan in human CSF predicted to induce 50% efficacy (EC50) of 5-HT1b by zolmitriptan and NDMZ, model, zolmitriptan: NDMZ 1.0:0.75) is 1.09 nM.
